≈ marks a conversion by molar mass, not a printed value.
Experiments:
Salmonella typhi = experiment: Antibacterial activity against […] incubated for 16 to 18 hrs by serial plate dilution method; format: functional, Salmonella enterica subsp. enterica serovar Typhi; conditions: Salmonella enterica
Bacillus subtilis = experiment: Antibacterial activity against Bacillus subtilis incubated for 16 to 18 hrs by serial plate dilution method; format: functional
Pseudomonas aeruginosa = experiment: Antibacterial activity against Pseudomonas aeruginosa incubated for 16 to 18 hrs by serial plate dilution method; format: functional
Shigella dysenteriae = experiment: Antibacterial activity against Shigella dysenteriae incubated for 16 to 18 hrs by serial plate dilution method; format: functional
Escherichia coli = experiment: Antibacterial activity against Escherichia coli DH52 incubated for 16 to 18 hrs by serial plate dilution method; format: functional
Staphylococcus aureus [1] = experiment: Antibacterial activity against Staphylococcus aureus ATCC 25923 incubated for 16 to 18 hrs by serial plate dilution method; format: functional
Micrococcus luteus = experiment: Antibacterial activity against Micrococcus luteus ATCC 4698 incubated for 16 to 18 hrs by serial plate dilution method; format: functional
Staphylococcus aureus [2] = experiment: Antibacterial activity against Staphylococcus aureus; format: functional
Alpha-galactosidase = Alpha-galactosidase (Coffea arabica, UniProt Q42656); experiment: Inhibition of green coffee bean alpha-galactosidase
Sequence of Alpha-galactosidase (Q42656 whole entry): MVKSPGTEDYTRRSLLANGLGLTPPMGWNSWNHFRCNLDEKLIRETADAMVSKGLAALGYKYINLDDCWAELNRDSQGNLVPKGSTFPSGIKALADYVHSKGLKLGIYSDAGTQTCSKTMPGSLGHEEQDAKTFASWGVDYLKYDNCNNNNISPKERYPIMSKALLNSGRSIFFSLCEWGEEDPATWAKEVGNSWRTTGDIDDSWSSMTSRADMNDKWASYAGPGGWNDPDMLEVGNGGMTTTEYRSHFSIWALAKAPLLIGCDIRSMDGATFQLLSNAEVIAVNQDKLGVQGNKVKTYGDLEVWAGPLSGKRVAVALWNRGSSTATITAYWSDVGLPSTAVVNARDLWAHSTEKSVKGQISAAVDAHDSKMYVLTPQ

[3] = Inhibition of 6His-tagged Mycobacterium tuberculosis inorganic pyrophosphatase using tetrasodium PPi as substrate after 8 mins by malachite green dye-based colorimetric analysis
Beta-galactosidase [4] = molecular target: T1, Beta-galactosidase (Homo sapiens, UniProt P16278); experiment: Inhibition of beta-galactosidase (unknown origin)
T1 sequence (P16278 whole entry): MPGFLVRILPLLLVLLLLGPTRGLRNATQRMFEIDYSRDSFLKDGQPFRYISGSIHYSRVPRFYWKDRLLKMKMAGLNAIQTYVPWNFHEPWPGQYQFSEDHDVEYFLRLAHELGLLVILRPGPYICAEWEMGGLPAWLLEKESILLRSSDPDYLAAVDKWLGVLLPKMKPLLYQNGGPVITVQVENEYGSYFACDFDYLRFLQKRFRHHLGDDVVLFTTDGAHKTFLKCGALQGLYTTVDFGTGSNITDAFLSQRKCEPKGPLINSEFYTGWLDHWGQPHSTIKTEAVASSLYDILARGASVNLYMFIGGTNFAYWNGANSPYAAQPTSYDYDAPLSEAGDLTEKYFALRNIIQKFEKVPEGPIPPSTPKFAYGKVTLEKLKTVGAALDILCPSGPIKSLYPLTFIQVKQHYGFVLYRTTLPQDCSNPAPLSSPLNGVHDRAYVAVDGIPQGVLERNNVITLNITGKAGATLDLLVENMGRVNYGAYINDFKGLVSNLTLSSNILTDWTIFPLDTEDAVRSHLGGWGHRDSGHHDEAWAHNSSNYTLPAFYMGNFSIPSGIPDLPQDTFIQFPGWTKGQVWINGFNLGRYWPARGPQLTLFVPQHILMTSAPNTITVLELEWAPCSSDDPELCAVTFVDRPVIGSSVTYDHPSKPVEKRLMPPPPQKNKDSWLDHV

[5] = molecular target: Protein farnesyltransferase (Homo sapiens, UniProt P49354+P49356); experiment: Inhibition of human recombinant FTase using [3H]FPP as substrate after 15 mins by scintillation counting analysis; format: protein-complex assay
HCT-116 = experiment: Cytotoxicity against human HCT116 cells; format: functional
HT-29 = experiment: Cytotoxicity against human HT-29 cells; format: functional
MCF7 = experiment: Cytotoxicity against human MCF7 cells; format: functional
Beta-galactosidase [6] = molecular target: T2, Beta-galactosidase (Aspergillus oryzae, UniProt B7VU80); experiment: Inhibition of Aspergillus oryzae beta-galactosidase
T2 sequence (B7VU80 whole entry): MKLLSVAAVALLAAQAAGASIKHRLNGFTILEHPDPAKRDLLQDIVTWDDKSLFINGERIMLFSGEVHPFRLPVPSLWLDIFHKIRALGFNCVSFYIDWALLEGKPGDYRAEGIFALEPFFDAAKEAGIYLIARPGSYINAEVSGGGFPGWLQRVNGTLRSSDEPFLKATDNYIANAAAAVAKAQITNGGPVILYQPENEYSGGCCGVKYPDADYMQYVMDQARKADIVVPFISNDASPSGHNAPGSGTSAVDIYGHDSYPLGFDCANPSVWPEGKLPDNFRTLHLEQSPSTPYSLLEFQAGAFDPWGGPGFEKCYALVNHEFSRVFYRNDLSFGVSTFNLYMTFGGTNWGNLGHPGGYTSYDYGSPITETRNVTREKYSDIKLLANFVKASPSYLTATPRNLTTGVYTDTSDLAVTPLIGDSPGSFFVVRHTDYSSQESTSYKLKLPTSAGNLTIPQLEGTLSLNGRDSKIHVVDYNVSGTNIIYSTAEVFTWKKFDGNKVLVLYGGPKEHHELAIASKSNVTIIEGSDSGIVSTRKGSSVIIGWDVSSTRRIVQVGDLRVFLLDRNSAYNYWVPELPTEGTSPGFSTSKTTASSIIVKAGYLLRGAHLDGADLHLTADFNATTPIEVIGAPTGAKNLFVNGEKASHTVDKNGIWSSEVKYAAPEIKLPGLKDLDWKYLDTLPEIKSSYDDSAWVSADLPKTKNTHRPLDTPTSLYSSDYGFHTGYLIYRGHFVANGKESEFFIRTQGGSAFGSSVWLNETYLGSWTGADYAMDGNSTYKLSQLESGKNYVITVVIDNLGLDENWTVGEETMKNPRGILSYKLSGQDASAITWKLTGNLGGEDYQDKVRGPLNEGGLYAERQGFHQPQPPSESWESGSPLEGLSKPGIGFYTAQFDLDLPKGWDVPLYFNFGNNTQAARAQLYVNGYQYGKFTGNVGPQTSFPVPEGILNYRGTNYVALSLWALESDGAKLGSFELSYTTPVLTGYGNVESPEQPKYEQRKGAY

[7] = Competitive inhibition of bovine epididymis alpha-L-fucosidase; parameters: species or system Bos taurus
Bos taurus = species: Bos taurus; experiment: Competitive inhibition of bovine epididymis alpha-L-fucosidase at 1 mM relative to control
Prunus dulcis = experiment: Competitive inhibition of almond beta-glucosidase at 1 mM relative to control
[8] = Competitive inhibition of almond beta-glucosidase; parameters: species or system Prunus dulcis
Rattus norvegicus = experiment: Anticonvulsant activity in Wistar rat assessed as protection against MES-induced seizures at 15 mg/kg dosed via gastric tube; format: functional

Compound: COC(=O)C1CCCCN(c2ccc(Cl)cc2)C1C(=O)OC (stereo not drawn)
- MIC (Salmonella typhi): 2 to 32 µg/mL (≈ 6.14 to 98.2 µM)
- MIC (Bacillus subtilis): 2 to 32 µg/mL (≈ 6.14 to 98.2 µM)
- MIC (Pseudomonas aeruginosa): 2 to 32 µg/mL (≈ 6.14 to 98.2 µM)
- MIC (Shigella dysenteriae): 2 to 32 µg/mL (≈ 6.14 to 98.2 µM)
- MIC (Escherichia coli): 2 to 32 µg/mL (≈ 6.14 to 98.2 µM)
- MIC (Staphylococcus aureus [1]): 2 to 32 µg/mL (≈ 6.14 to 98.2 µM)
- MIC (Micrococcus luteus): 2 to 32 µg/mL (≈ 6.14 to 98.2 µM)

Compound: NC[C@H]1O[C@H](O[C@H]2C[C@H](CO)NCC[C@H]2N)[C@H](N)[C@@H](O)[C@@H]1O
- MIC (Staphylococcus aureus [2]): 32 µg/mL (≈ 99.9 µM)

Compound: OC[C@H]1NC[C@H](O)[C@H](O)[C@@H](O)[C@@H]1O
- Ki (Alpha-galactosidase): 2.2 µM

Compound: CCCCN(CCCC)c1nc(-c2cccn2CCc2ccccc2)nc(N2CCCCCC2)n1
- IC50 [3]: 23 µM

Compound: CCCC[C@@H]1C[C@@H](O)[C@@H](O)[C@@H](O)CN1
- IC50 (Beta-galactosidase [4]): 3 µM

Compound: COC(=O)C1CCCCN(c2ccccn2)C1C(=O)OC (stereo not drawn)
- MIC (Salmonella typhi): 1 to 16 µg/mL (≈ 3.42 to 54.7 µM)
- MIC (Bacillus subtilis): 1 to 16 µg/mL (≈ 3.42 to 54.7 µM)
- MIC (Pseudomonas aeruginosa): 1 to 16 µg/mL (≈ 3.42 to 54.7 µM)
- MIC (Shigella dysenteriae): 1 to 16 µg/mL (≈ 3.42 to 54.7 µM)
- MIC (Escherichia coli): 1 to 16 µg/mL (≈ 3.42 to 54.7 µM)
- MIC (Staphylococcus aureus [1]): 1 to 16 µg/mL (≈ 3.42 to 54.7 µM)
- MIC (Micrococcus luteus): 1 to 16 µg/mL (≈ 3.42 to 54.7 µM)

Compound: CCC1CCCN(C)C(=O)[C+]1c1cccc(Oc2cc(C(C)(N)c3cncn3C)ccc2C#N)c1 (stereo not drawn)
- IC50 [5]: 0.06 nM

Compound: CC(C)O[C@H]1[C@H](OC(C)C)[C@H](O)CN(Cc2ccc(OCCCOc3ccc(CN4C[C@@H](O)[C@@H](OC(C)C)[C@H](OC(C)C)[C@H](O)C4)cc3)cc2)C[C@H]1O
- GI50 (HCT-116): 6 µM
- GI50 (HT-29): 23 µM
- GI50 (MCF7): 24 µM

Compound: O=C(O)C[C@H]1NC[C@@H](O)[C@H](O)[C@H](O)[C@H]1O
- IC50 (Beta-galactosidase [6]): 21 µM

Compound: O=C(O)[C@H]1CNC[C@@H](O)[C@H](O)[C@H]1O
- Ki [7]: 41 µM
- inhibition (Bos taurus): 99%

Compound: CN(C)c1nc(-c2cccn2-c2ccccc2)nc(N(C)C)n1
- IC50 [3]: 540 µM

Compound: O=C(O)C[C@@H]1NC[C@H](O)[C@H](O)[C@H](O)[C@H]1O
- IC50 (Beta-galactosidase [6]): 279 µM

Compound: C[C@@H]1CNC[C@@H](O)[C@H](O)[C@H]1O
- inhibition (Prunus dulcis): 100%
- Ki [8]: 2.5 µM

Compound: NC(=O)N1c2ccccc2C/C(=N\O)c2ccccc21
- Activity (Rattus norvegicus): 90%

Compound: O=C(O)C[C@H]1NC[C@@H](O)[C@@H](O)[C@H](O)[C@H]1O
- IC50 (Beta-galactosidase [6]): 215 µM

Compound: c1ccc(-n2cccc2-c2nc(N3CC3)nc(N3CC3)n2)cc1
- IC50 [3]: 130 µM

Compound: NC[C@H]1O[C@H](OC2C[C@H](CO)NCC[C@@H]2N)[C@H](N)[C@@H](O)[C@@H]1O (stereo partly drawn)
- MIC (Staphylococcus aureus [2]): 64 µg/mL (≈ 200 µM)
